Key:
salivary alpha-amylase = salivary alpha-amylase level before and after a stress test (kinetic reaction assay kit); assay type: in vivo, human; conditions: Table 6; before vs immediately after ten minute stress test; about 10-15 panelists; DPG = +60.7%
Source text: Salivary alpha-amylase is widely used as a biomarker for acute stress. The purpose of this study was to investigate the influence of individual fragrance compounds, particularly musk compounds, on a subject's salivary alpha-amylase levels before and after exposure to a stressor. The subject sniffed each musk compound, then was exposed to a stressor. The goal was to identify one or more specific musk compounds which caused the least amount of change in salivary alpha-amylase levels or decreased a subject's salivary alpha-amylase levels compared to before administration, thereby reducing or inhibiting a response to stress stimuli. […] The p values of the control as compared to each musk compound were calculated as follows: rosamusk (p=0.0366), habanolide (p=0.1163), ambrettolide (p=0.1397).
Twelve to fourteen female panelists age 30-45 participated in this study for each of the test materials. Stress was induced using a timed ten minute mathematical/word test in a small group competition setting. The musk material was introduced at intervals during the stress test.
Saliva was collected before and immediately after the stress test. Saliva samples were assayed for salivary alpha-amylase activity using a commercially available kinetic reaction assay kit (Salimetrics®, State College, Pa.).
(§1) Fourteen female panelists age 30-45 participated in this study. Stress was induced using a timed ten minute mathematical/word test in a small group competition setting. Fragrance was introduced at intervals during the stress test. Saliva was collected before (Pre) and immediately after (Post) the stress test. Saliva samples were assayed for salivary alpha-amylase using a commercially available kinetic reaction assay kit and for salivary cortisol using a highly sensitive enzyme immunoassay kit (Salimetrics®, State College, Pa.).
(§2) Stress was induced in a number of panelists (about 10-15) for each tested compound using a timed ten minute mathematical/word test in a small group competition setting. The test compound was introduced at intervals during the stress test.
(§3) Saliva was collected before and immediately after the stress test. Saliva samples were assayed for salivary cortisol levels and salivary alpha-amylase activity using a commercially available kinetic reaction assay kit (Salimetrics®, State College, Pa.).
(§4) Methodology for number of drops. Ten to twenty-four panelists age 30-45 participated in this study. The amount of fragrance tested was divided equally and applied onto 6 blotter cards each 3 by 5 inches in size. They were weighed and placed in the test room 30 minutes before the stress test to equilibrate.
(§5) Stress was induced using a timed ten-minute mathematical/word test in a small group competition setting. The blotter cards were removed and weighed again after the stress test. […]

salivary cortisol = salivary cortisol level before and after a stress test (enzyme immunoassay kit); assay type: in vivo, human; conditions: Table 6; before vs immediately after ten minute stress test; about 10-15 panelists; DPG = −10.9%
Source text: Salivary cortisol is widely used as a biomarker for stress. The purpose of this study was to investigate the influence of individual fragrance compounds, particularly musk compounds, on a subject's cortisol levels before and after exposure to a stressor. The subject sniffed each musk compound, then was exposed to a stressor. The goal was to identify one or more specific musk compounds which caused the least amount of change in cortisol levels or decreased a subject's cortisol levels compared to before administration, thereby reducing or inhibiting a response to stress stimuli.
as §1, §2, §3, §4, §5

[1] = chassis-air partition coefficient, APDO soft solid chassis; assay type: physicochemical
Source text: (§6) The chassis-air partition coefficient can be measured for materials in various chassis.
(§7) Ki,chassis-air is the chassis-air partition coefficient for component i in the fragrance formula
(§8) Ci, chassis is the concentration of component i in the product formula chassis in molarity, M
(§9) Ci, air is the concentration of component i in the headspace air in equilibrium with the formula chassis in molarity, M
(§10) For the “Example Accord” in the BC-162 shampoo chassis components, the log chassis-air partition coefficients are as listed in Table 11.

[2] = chassis-air partition coefficient, BC-162 shampoo chassis; assay type: physicochemical
Source text: as §6, §7, §8, §9, §10

SMILES | Salivary Amylase Data (change in salivary alpha-amylase) (salivary alpha-amylase) | Cortisol Data (change in salivary cortisol) (salivary cortisol) | logK, APDO Soft Solid (log chassis-air partition coefficient) [1] | logK, BC162 (log chassis-air partition coefficient) [2]
CC(=O)C(C)CC[C@H]1CCC(C)C1(C)C (stereo partly drawn) [3-methyl-5-((1R)-2,2,3-trimethylcyclopentyl)pentan-2-one] | −6.1% |  |  | 
CC1=CCC(C/C=C(\C)CO)C1(C)C (stereo not drawn) [Hindinol ®, (E)-2-methyl-4-(2,2,3-trimethyl-1-cyclopent-3-enyl)but-2-en-1-ol] | +82.3% | −25.0% |  | 
CC1CCCCCCCCCCCCC(=O)C1 [L-Muscone] | +14.5% | +25.6% |  | 
CC(=O)c1cc2c(cc1C)C(C)(C)C(C)C2(C)C (stereo not drawn) [Phantolide, 1-(1,1,2,3,3,6-hexamethyl-2H-inden-5-yl)ethanone] | −19.2% | −12.3% |  | 
C=C.CCCCCCCCCCCC(=O)O [ZENOLIDE, ethylene dodecanoate] |  |  | 6.966 | 6.131
